Each structure is given as a SMILES string. “And” between values parts separate entries of the source, which are not always exact repeats. Identical values can stand only once. Results filed as inconclusive are left out.

The assay has as its system CD8F1 mice, subcutaneous mammary adenocarcinoma, T/C%. Briefly: NCI In Vivo Anticancer Drug Screen. Data for tumor model Mammary Adenocarcinoma CD8F1 (subcutaneous) in CD8F1. As to conditions: higher = larger tumour. The procedure:
The antitumor activity of compounds was measured in mice bearing transplantable tumors. Survival or tumor size were measured and the results are expressed as the measurement made in the treated group (T) divided by the measurement made in the vehicle treated control group (C). The tumor model used in this assay is Mammary Adenocarcinoma CD8F1 (subcutaneous) in CD8F1

Where [1] appears, read: endpoint: median tumor weight (est.), dose: 25.0 mg/kg/injection, schedule: Q07DX005 (ip), vehicle: Klucel (hydroxypropylcellulose) (HPC).
Where [2] appears, read: endpoint: median tumor weight change, dose: 125.0 mg/kg/injection, schedule: Q01DX001 (ip), vehicle: saline.

In the case of `Cc1ccoc1`, the T/C (endpoint: median tumor weight change, dose: 20.8 mg/kg/injection, schedule: Q03HX003 (ip), vehicle: saline with Tween-80) was 66 % of control; the T/C (endpoint: median tumor weight change, dose: 41.6 mg/kg/injection, schedule: Q03HX003 (ip), vehicle: saline with Tween-80) is 82 % of control; the T/C (endpoint: median tumor weight change, dose: 83.3 mg/kg/injection, schedule: Q03HX003 (ip), vehicle: saline with Tween-80) is 62 % of control; the T/C (endpoint: median tumor weight change, dose: 166.6 mg/kg/injection, schedule: Q03HX003 (ip), vehicle: saline with Tween-80) was 73 % of control.

Turning to `C=C1C(=O)OCC1C(=O)O` (stereo not drawn), the T/C (endpoint: median tumor weight change, dose: 15.62 mg/kg/injection, schedule: Q01DX001 (ip), vehicle: suspension in saline) was 101 % of control; the T/C (endpoint: median tumor weight change, dose: 62.5 mg/kg/injection, schedule: Q01DX001 (ip), vehicle: suspension in saline) was 89 % of control; the T/C (endpoint: median tumor weight change, dose: 125.0 mg/kg/injection, schedule: Q01DX001 (ip), vehicle: suspension in saline) was 123 % of control.

On to `N#CC(C#N)=C/C=C/c1cccc([N+](=O)[O-])c1`, for which the T/C was 122 % of control (endpoint: median tumor weight (est.), dose: 3.12 mg/kg/injection, schedule: Q07DX005 (ip), vehicle: Klucel (hydroxypropylcellulose) (HPC)); 239 % of control (endpoint: median tumor weight (est.), dose: 6.25 mg/kg/injection, schedule: Q07DX005 (ip), vehicle: Klucel (hydroxypropylcellulose) (HPC)); 169 % of control (endpoint: median tumor weight (est.), dose: 12.5 mg/kg/injection, schedule: Q07DX005 (ip), vehicle: Klucel (hydroxypropylcellulose) (HPC)); 152 % of control under setting [1].

Consider `CC(C)(C)N1CC1CNC(=O)C(=O)NCC1CN1C(C)(C)C` (stereo not drawn), for which the T/C by setting is: (endpoint: median tumor weight change, dose: 15.6 mg/kg/injection, schedule: Q01DX001 (ip), vehicle: saline with Tween-80) 50 % of control; (endpoint: median tumor weight change, dose: 15.62 mg/kg/injection, schedule: Q01DX001 (ip), vehicle: saline with Tween-80) 30 % of control; (endpoint: median tumor weight change, dose: 31.25 mg/kg/injection, schedule: Q01DX001 (ip), vehicle: saline with Tween-80) 30 % of control and 37 % of control.

For `CC(=O)C(O)N1C(=O)C=CC1=O` (stereo not drawn), the T/C (endpoint: median tumor weight (est.), dose: 0.62 mg/kg/injection, schedule: Q07DX005 (ip), vehicle: saline) was 78 % of control; the T/C (endpoint: median tumor weight (est.), dose: 1.25 mg/kg/injection, schedule: Q07DX005 (ip), vehicle: saline) was 74 % of control; the T/C (endpoint: median tumor weight (est.), dose: 2.5 mg/kg/injection, schedule: Q07DX005 (ip), vehicle: saline) is 77 % of control; the T/C (endpoint: median tumor weight (est.), dose: 5.0 mg/kg/injection, schedule: Q07DX005 (ip), vehicle: saline) was 50 % of control.

As for `COC1C(O)CC(OC2CC(OC3CC(O[C@@H]4C(=O)c5c(cc6cc(OC7CC(OC8CC(O)C(O)C(C)O8)C(O)C(C)O7)c(C)c(O)c6c5O)C[C@H]4[C@H](OC)C(=O)[C@@H](O)[C@@H](C)O)OC(C)C3O)OC(C)C2O)OC1C` (stereo partly drawn), the T/C (endpoint: median tumor weight (est.), dose: 0.18 mg/kg/injection, schedule: Q07DX005 (ip), vehicle: saline) is 88 % of control; the T/C (endpoint: median tumor weight (est.), dose: 0.75 mg/kg/injection, schedule: Q07DX005 (ip), vehicle: saline) is 24 % of control and 42 % of control.

On to `CC(C)[C@](O)(C(=O)OCC1=CC[N+]2([O-])CC[C@@H](O)[C@@H]12)[C@H](C)O` (stereo partly drawn), for which the T/C reads like this: (endpoint: median tumor weight (est.), dose: 25.0 mg/kg/injection, schedule: Q07DX005 (ip), vehicle: water) 81 % of control; (endpoint: median tumor weight (est.), dose: 50.0 mg/kg/injection, schedule: Q07DX005 (ip), vehicle: water) 67 % of control; (endpoint: median tumor weight (est.), dose: 100.0 mg/kg/injection, schedule: Q07DX005 (ip), vehicle: water) 42 % of control; (endpoint: median tumor weight (est.), dose: 200.0 mg/kg/injection, schedule: Q07DX005 (ip), vehicle: water) 79 % of control; (endpoint: median tumor weight (est.), dose: 400.0 mg/kg/injection, schedule: Q07DX005 (ip), vehicle: water) 59 % of control.

As to `CS(C)=O`, the T/C (endpoint: median tumor weight (est.), dose: 1.5 grams/kg/injection, schedule: Q07DX005 (ip), vehicle: saline) was 106 % of control and 122 % of control.

On to `CCC[CH2][Hg][Cl]`, for which the T/C reads like this: (endpoint: median tumor weight (est.), dose: 2.5 mg/kg/injection, schedule: Q07DX005 (ip), vehicle: Klucel (hydroxypropylcellulose) (HPC)) 197 % of control; (endpoint: median tumor weight (est.), dose: 5.0 mg/kg/injection, schedule: Q07DX005 (ip), vehicle: Klucel (hydroxypropylcellulose) (HPC)) 112 % of control; (endpoint: median tumor weight (est.), dose: 20.0 mg/kg/injection, schedule: Q07DX005 (ip), vehicle: Klucel (hydroxypropylcellulose) (HPC)) 110 % of control.

Consider `O=C1OC(=O)[C@H]2[C@@H]1[C@H]1C=C[C@@H]2OC1=O`, for which the T/C reads like this: under setting [2], 154 % of control; (endpoint: median tumor weight change, dose: 250.0 mg/kg/injection, schedule: Q01DX001 (ip), vehicle: saline) 98 % of control; (endpoint: median tumor weight change, dose: 500.0 mg/kg/injection, schedule: Q01DX001 (ip), vehicle: saline) 91 % of control; (endpoint: median tumor weight change, dose: 1000.0 mg/kg/injection, schedule: Q01DX001 (ip), vehicle: saline) 95 % of control; (endpoint: median tumor weight change, dose: 2000.0 mg/kg/injection, schedule: Q01DX001 (ip), vehicle: saline) 40 % of control.

As for `CC(=O)O[C@@H]1[C@@H](O)C2=C3[C@]4(C)[C@@H]1C(C)(C)C(=O)C[C@@H]4[C@]3(O)[C@H](OC(C)=O)[C@@]1(C[C@@H]1C)C2=O`, the T/C runs as follows: (endpoint: median tumor weight (est.), dose: 6.25 mg/kg/injection, schedule: Q07DX005 (ip), vehicle: distilled water + Tween-80) 98 % of control; (endpoint: median tumor weight (est.), dose: 6.25 mg/kg/injection, schedule: Q07DX005 (ip), vehicle: saline with Tween-80) 112 % of control; (endpoint: median tumor weight (est.), dose: 12.5 mg/kg/injection, schedule: Q07DX005 (ip), vehicle: distilled water + Tween-80) 151 % of control; (endpoint: median tumor weight (est.), dose: 12.5 mg/kg/injection, schedule: Q07DX005 (ip), vehicle: saline with Tween-80) 117 % of control; (endpoint: median tumor weight (est.), dose: 25.0 mg/kg/injection, schedule: Q07DX005 (ip), vehicle: distilled water + Tween-80) 87 % of control; (endpoint: median tumor weight (est.), dose: 50.0 mg/kg/injection, schedule: Q07DX005 (ip), vehicle: distilled water + Tween-80) 94 % of control. Besides, the T/C (endpoint: median tumor weight (est.), dose: 50.0 mg/kg/injection, schedule: Q07DX005 (ip), vehicle: saline with Tween-80) is 72 % of control.

Consider `O=C1C=C[C@H](O)[C@@]2(CO)O[C@@H]12`, for which the T/C is, setting by setting: (endpoint: median tumor weight change, dose: 3.12 mg/kg/injection, schedule: Q01DX001 (ip), vehicle: saline with Tween-80) 65 % of control; (endpoint: median tumor weight change, dose: 6.25 mg/kg/injection, schedule: Q01DX001 (ip), vehicle: saline with Tween-80) 61 % of control; (endpoint: median tumor weight change, dose: 12.5 mg/kg/injection, schedule: Q01DX001 (ip), vehicle: saline with Tween-80) 90 % of control.

For `CCCCCCC(=O)CC(SCC)c1ccccc1Cl` (stereo not drawn), the T/C (endpoint: median tumor weight change, dose: 125.0 mg/kg/injection, schedule: Q01DX001 (ip), vehicle: saline with Tween-80) is 108 % of control; the T/C (endpoint: median tumor weight change, dose: 250.0 mg/kg/injection, schedule: Q01DX001 (ip), vehicle: saline with Tween-80) is 72 % of control; the T/C (endpoint: median tumor weight change, dose: 500.0 mg/kg/injection, schedule: Q01DX001 (ip), vehicle: saline with Tween-80) is 77 % of control; the T/C (endpoint: median tumor weight change, dose: 1000.0 mg/kg/injection, schedule: Q01DX001 (ip), vehicle: saline with Tween-80) is 72 % of control; the T/C (endpoint: median tumor weight change, dose: 2000.0 mg/kg/injection, schedule: Q01DX001 (ip), vehicle: saline with Tween-80) is 86 % of control.

For the molecule `COc1cccc2c1C(=O)c1c(O)c3c(c(O)c1C2=O)CC(O)(/C(C)=N/NC(=O)CCC(=O)N/N=C(\C)C1(O)Cc2c(O)c4c(c(O)c2C(OC2CC(N)C(O)C(C)O2)C1)C(=O)c1c(OC)cccc1C4=O)CC3OC1CC(N)C(O)C(C)O1` (stereo not drawn), the T/C was 167 % of control (endpoint: median tumor weight (est.), dose: 1.5 mg/kg/injection, schedule: Q07DX005 (ip), vehicle: water); 45 % of control (endpoint: median tumor weight (est.), dose: 6.0 mg/kg/injection, schedule: Q07DX005 (ip), vehicle: water); 17 % of control and 40 % of control (endpoint: median tumor weight (est.), dose: 12.0 mg/kg/injection, schedule: Q07DX005 (ip), vehicle: water); 7 % of control (endpoint: median tumor weight (est.), dose: 24.0 mg/kg/injection, schedule: Q07DX005 (ip), vehicle: water).

Turning to `CCCC(=O)O`, the T/C is 88 % of control (endpoint: median tumor weight change, dose: 7.81 mg/kg/injection, schedule: Q01DX001 (ip), vehicle: saline); 166 % of control (endpoint: median tumor weight change, dose: 15.62 mg/kg/injection, schedule: Q01DX001 (ip), vehicle: saline); 97 % of control (endpoint: median tumor weight change, dose: 31.25 mg/kg/injection, schedule: Q01DX001 (ip), vehicle: saline); 80 % of control (endpoint: median tumor weight change, dose: 62.5 mg/kg/injection, schedule: Q01DX001 (ip), vehicle: saline); 71 % of control under setting [2].

For `CC1C=NNC1=O` (stereo not drawn), the T/C under setting [1] was 20 % of control; the T/C (endpoint: median tumor weight (est.), dose: 50.0 mg/kg/injection, schedule: Q07DX005 (ip), vehicle: Klucel (hydroxypropylcellulose) (HPC)) was 187 % of control; the T/C (endpoint: median tumor weight (est.), dose: 100.0 mg/kg/injection, schedule: Q07DX005 (ip), vehicle: Klucel (hydroxypropylcellulose) (HPC)) was 234 % of control; the T/C (endpoint: median tumor weight (est.), dose: 200.0 mg/kg/injection, schedule: Q07DX005 (ip), vehicle: Klucel (hydroxypropylcellulose) (HPC)) is 182 % of control; the T/C (endpoint: median tumor weight (est.), dose: 400.0 mg/kg/injection, schedule: Q07DX005 (ip), vehicle: Klucel (hydroxypropylcellulose) (HPC)) is 23 % of control.

The record behind these values is PubChem BioAssay AID220 (DTP/NCI, 2004).
